In ChEMBL document CHEMBL1201862, “PubChem BioAssay data set” (2004):
The source made the active and inactive calls.

Key:
Beta-lactamase [1] = target: T1, Beta-lactamase (Pseudomonas aeruginosa, UniProt Q79MP6)
Beta-lactamase [2] = target: T2, Beta-lactamase (Salmonella choleraesuis (strain SC-B67), UniProt Q5J463)
[3] = target: Arf-GAP with SH3 domain, ANK repeat and PH domain-containing protein 1 (Homo sapiens, UniProt Q9ULH1); format: functional;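 further: biochemical fluorescence polarization dose–response screen measuring inhibition of ASAP1; ASAP1 GAP domain stimulating GTP hydrolysis by truncated human ARF1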
Sequence of Arf-GAP with SH3 domain, ANK repeat and PH domain-containing protein 1 (Q9ULH1 whole entry, the tested form may be a part): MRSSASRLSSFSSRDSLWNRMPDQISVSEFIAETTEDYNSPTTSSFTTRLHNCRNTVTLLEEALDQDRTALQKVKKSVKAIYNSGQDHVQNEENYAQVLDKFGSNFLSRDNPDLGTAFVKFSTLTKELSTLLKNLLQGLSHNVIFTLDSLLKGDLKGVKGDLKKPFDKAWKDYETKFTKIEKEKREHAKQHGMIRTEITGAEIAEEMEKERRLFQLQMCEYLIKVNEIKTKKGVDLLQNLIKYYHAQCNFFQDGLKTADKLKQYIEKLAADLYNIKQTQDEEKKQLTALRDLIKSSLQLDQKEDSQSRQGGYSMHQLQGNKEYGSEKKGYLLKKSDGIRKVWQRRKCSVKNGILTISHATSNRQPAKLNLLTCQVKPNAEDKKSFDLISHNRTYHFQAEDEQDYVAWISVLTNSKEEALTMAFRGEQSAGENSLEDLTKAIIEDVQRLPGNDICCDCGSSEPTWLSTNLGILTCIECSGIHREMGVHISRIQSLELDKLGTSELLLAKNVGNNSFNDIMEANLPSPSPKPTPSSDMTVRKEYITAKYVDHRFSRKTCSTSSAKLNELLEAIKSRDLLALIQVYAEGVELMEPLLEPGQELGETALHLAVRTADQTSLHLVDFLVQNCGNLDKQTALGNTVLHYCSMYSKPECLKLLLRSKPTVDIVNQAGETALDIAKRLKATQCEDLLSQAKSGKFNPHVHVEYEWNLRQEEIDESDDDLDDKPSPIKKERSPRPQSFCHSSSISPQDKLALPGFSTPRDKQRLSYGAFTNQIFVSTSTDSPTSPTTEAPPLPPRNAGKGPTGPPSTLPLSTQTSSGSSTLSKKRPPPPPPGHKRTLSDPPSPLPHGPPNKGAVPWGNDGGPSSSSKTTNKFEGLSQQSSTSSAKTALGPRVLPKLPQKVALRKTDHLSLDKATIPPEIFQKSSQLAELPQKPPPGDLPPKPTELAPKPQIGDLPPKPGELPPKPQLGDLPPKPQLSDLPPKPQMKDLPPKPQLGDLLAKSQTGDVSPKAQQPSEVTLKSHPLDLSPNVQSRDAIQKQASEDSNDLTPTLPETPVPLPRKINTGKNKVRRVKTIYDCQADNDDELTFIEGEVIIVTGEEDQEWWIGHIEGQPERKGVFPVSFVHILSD

HeLa = experiment: HeLa cell cytotoxicity, dose response, cytotoxicity control, ATP luminescence, cherry-pick samples (AID 687004); format: functional, cell-based; conditions: Homo sapiens
[4] = target: T3, Replicative DNA helicase DnaB (Mycobacterium tuberculosis, UniProt P9WMR3); experiment: DnaB intein splicing inhibitors, dose response, biochemical, cell-free fluorescence (AID 449749); format: functional
T3 sequence (P9WMR3 whole entry): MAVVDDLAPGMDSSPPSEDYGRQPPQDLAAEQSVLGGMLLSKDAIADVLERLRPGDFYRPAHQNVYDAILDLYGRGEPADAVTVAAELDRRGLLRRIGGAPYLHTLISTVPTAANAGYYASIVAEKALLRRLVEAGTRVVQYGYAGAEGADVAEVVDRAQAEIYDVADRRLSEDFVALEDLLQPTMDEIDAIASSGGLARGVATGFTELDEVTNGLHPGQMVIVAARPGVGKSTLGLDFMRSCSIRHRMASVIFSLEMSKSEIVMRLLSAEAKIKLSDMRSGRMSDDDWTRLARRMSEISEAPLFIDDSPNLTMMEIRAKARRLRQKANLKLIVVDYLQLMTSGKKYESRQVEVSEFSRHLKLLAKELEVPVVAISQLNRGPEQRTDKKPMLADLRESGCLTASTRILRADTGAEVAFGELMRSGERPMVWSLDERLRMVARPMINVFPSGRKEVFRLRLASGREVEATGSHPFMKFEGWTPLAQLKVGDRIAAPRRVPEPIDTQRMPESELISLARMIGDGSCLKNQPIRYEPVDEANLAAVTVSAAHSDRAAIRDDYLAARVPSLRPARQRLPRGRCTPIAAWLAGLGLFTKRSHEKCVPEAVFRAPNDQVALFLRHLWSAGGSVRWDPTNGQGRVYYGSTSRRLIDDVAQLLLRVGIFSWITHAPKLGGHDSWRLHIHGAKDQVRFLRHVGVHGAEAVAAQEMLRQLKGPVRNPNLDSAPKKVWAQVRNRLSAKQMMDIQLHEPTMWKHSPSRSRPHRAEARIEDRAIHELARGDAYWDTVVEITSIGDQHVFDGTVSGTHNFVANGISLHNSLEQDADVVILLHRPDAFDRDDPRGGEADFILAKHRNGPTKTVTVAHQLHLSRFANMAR

Protein RecA = target: T4, Protein RecA (Mycobacterium tuberculosis, UniProt P9WHJ3); experiment: Fluorescence Cell-Free Homogeneous Dose Retest to Identify Inhibitors of RecA-Intein Splicing Activity. [Related pubchem assays (depositor defined):AID2097, AID2223, AID489010, AID492950]; format: functional
T4 sequence (P9WHJ3 whole entry): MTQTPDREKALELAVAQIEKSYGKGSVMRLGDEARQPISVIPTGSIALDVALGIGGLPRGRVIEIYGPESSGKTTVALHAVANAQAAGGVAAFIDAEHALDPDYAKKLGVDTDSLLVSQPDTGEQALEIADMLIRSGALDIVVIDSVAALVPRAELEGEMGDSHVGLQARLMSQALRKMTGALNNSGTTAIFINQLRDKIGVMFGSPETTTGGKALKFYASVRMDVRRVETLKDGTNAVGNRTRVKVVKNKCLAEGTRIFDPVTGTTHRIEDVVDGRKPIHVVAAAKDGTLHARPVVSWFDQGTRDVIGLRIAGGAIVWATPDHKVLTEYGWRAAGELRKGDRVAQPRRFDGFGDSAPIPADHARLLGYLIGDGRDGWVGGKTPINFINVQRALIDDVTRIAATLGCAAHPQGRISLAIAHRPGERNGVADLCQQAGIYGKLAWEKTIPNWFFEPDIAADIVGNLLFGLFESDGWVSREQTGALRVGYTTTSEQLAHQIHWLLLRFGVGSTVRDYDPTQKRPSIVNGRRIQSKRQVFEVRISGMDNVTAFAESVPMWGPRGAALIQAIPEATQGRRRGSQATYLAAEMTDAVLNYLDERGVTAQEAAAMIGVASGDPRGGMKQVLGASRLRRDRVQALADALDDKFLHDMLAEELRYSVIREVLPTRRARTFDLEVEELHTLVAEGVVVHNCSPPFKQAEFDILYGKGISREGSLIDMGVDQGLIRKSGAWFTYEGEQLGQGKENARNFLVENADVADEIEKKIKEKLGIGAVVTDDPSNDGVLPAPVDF

[5] = target: T5, Sentrin-specific protease 8 (Homo sapiens, UniProt Q96LD8); format: functional
T5 sequence (Q96LD8 whole entry): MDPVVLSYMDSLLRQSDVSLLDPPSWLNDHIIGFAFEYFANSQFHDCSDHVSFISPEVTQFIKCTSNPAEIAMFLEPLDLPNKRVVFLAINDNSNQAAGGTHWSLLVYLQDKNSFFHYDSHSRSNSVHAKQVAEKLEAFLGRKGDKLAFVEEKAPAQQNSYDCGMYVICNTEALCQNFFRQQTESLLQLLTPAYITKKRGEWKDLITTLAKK

[6] = target: T5, Sentrin-specific protease 8; format: functional; remark: listed apart in the source
Cytochrome P450 2C19 = Cytochrome P450 2C19 (Homo sapiens, UniProt P33261); experiment: Cytochrome panel assay with activity outcomes. Panel member name: p450-cyp2c19 Compounds with AC50 equal or less than 10 uM are considered active; format: functional; conditions: read-out: AC50
Sequence of Cytochrome P450 2C19 (P33261 whole entry): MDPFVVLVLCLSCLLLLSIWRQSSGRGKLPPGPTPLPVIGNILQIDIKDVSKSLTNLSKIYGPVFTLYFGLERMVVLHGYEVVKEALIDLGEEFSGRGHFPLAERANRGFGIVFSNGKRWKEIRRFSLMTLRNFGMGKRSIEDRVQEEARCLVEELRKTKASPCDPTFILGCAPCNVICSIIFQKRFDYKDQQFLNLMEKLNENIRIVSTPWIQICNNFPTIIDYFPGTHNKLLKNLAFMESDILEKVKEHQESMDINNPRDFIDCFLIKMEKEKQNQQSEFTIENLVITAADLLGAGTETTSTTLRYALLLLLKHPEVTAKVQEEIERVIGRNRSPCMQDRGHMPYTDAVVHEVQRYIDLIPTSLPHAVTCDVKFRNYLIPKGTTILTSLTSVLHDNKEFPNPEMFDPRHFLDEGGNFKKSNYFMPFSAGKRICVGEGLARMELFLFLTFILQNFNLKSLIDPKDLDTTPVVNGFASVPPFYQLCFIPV

[7] = target: T6, Beta-2 adrenergic receptor (Homo sapiens, UniProt P07550); experiment: beta2AR agonists driving receptor internalization, dose response, cell-based, FAP fluorogen, flow cytometry, cherry pick 1 (AID 588763); format: functional
T6 sequence (P07550 whole entry): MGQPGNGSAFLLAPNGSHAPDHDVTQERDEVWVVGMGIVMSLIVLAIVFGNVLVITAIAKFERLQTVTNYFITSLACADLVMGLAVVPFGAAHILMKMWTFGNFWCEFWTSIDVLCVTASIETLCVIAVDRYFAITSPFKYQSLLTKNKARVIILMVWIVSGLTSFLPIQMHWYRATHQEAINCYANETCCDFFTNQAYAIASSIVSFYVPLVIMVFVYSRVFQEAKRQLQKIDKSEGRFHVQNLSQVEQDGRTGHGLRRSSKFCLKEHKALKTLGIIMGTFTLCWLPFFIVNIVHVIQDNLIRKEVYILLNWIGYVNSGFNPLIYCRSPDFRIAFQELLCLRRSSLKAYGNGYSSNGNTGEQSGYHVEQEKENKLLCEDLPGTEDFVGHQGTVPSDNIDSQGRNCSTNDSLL

[8] = target: T6, Beta-2 adrenergic receptor; experiment: Dose response for HTS for Beta-2AR agonists via FAP method from Powderset3.; format: functional
Cytochrome P450 3A4 = Cytochrome P450 3A4 (Homo sapiens, UniProt P08684);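 further: CYP3A4 tested as one member of a cytochrome P450 panel screen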
Sequence of Cytochrome P450 3A4 (P08684 whole entry): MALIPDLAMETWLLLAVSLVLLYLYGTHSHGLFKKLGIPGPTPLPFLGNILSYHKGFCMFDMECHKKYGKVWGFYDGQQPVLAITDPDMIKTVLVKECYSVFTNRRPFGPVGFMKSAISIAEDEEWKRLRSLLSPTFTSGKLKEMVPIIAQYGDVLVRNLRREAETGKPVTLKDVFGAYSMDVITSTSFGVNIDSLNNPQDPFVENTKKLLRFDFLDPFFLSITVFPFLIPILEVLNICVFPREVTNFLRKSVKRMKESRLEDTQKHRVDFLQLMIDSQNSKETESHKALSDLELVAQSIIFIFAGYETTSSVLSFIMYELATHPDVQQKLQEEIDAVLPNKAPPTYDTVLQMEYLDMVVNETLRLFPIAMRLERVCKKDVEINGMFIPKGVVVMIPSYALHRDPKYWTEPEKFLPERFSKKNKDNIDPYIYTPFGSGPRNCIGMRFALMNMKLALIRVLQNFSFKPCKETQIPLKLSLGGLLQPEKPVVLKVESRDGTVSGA

[9] = NIH/3T3 fibroblast cytotoxicity, dose response, cytotoxicity control for T. cruzi growth inhibitor project, cell-based, cherry-pick samples, set 2 (AID 651817); format: functional; conditions: NIH3T3
[10] = intracellular Trypanosoma cruzi inhibitors in host cells – cell-based, plate reader, cherry-pick samples, set 3, dose response (AID 651818); format: functional;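 further: compounds incubated with infected cells for about four days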
[11] = lymphoblastoid cell cytotoxicity, dose response, cytotoxicity control, plate reader, dry powder, set 2 (AID 624367); format: functional
[12] = P. falciparum 3D7-ScDHODH growth inhibitors, dose response, SYBR Green, dry powder samples (AID 1159570); format: functional, cell-based;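 further: parasite growth measured after 72 hours of compound exposure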
[13] = HepG2 cell cytotoxicity, dose response, cytotoxicity control, plate reader, dry powder samples (AID 1159569); format: functional, cell-based;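 further: inhibitor potency with signal falling toward the positive control level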
[14] = P. falciparum Dd2 growth inhibitors, dose response, SYBR Green, cherry-picked samples (AID 1159567); format: functional, cell-based
[15] = P. falciparum Dd2 growth inhibitors, dose response, SYBR Green, dry powder samples (AID 1159566); format: functional, cell-based;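 further: potency for growth inhibition with lower SYBR green DNA signal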
[16] = HepG2 cell cytotoxicity, dose response, cytotoxicity control, cherry-picked samples (AID 1159577); format: functional, cell-based
[17] = P. falciparum ATP4 D1247Y mutant growth inhibitors, dose response, NITD609-resistant line, SYBR Green, dry powder (AID 1159571); format: functional, cell-based;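 further: parasites synchronized at ring stage by sorbitol before testing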
[18] = target: Scavenger receptor class B member 1 (Mus musculus, UniProt Q61009); experiment: inhibitors of SR-BI dependent HDL uptake, dose response, ldlA[mSR-BI] CHO cells, fluorescence plate reader, dry powder, set 9 (AID 623880); format: functional, cell-based
Sequence of Scavenger receptor class B member 1 (Q61009 whole entry): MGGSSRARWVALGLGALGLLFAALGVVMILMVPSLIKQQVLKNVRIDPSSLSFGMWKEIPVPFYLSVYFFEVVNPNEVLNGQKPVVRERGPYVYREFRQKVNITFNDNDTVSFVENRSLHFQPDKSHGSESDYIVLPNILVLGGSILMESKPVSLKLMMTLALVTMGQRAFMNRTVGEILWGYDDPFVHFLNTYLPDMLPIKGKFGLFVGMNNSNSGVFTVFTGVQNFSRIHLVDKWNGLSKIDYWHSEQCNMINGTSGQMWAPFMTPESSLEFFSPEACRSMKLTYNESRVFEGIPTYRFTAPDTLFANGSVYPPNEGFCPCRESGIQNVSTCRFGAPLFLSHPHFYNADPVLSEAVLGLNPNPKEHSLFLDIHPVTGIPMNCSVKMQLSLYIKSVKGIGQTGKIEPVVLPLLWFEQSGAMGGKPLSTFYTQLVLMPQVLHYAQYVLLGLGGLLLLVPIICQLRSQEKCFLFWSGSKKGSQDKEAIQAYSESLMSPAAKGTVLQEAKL

[19] = cytotoxicity in ldlA[mSR-BI] CHO cells, dose response, cytotoxicity control for SR-BI HDL uptake inhibitor project, cell-based, CellTiter-Glo, 24 h, powder samples, set 7 (AID 624026); format: functional
[20] = Cryptococcus neoformans growth inhibition, dose response, Alamar Blue, cherry-picks (AID 686998); format: functional, organism-based
[21] = cytotoxicity in HEK-293T cells, dose response, cytotoxicity control for TCR NF-kB inhibitor project, luminescence, T-cell screen hits (AID 489026); format: functional, cell-based;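 further: cells exposed to compound about 14 hours before the viability readout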
Vero = experiment: Vero cell toxicity, dose response, cytotoxicity control, plate reader, cherry-pick samples (AID 687020); format: functional, cell-based; conditions: Chlorocebus sabaeus
A549 = experiment: A549 cell toxicity, dose response, cytotoxicity control, plate reader, cherry-pick samples (AID 687028); format: functional, cell-based; conditions: Homo sapiens
[22] = luciferase signal loss, tTA control fusion, HeLa F-luc tTA cells, dry powder, counter-screen for HIV Env fusion inhibitor project, dose response (AID 687021); format: functional, cell-based
[23] = A Cell-Based Confirmatory Screen for Compounds that Inhibit VEEV, TC-83 (8).; format: functional
[24] = cytotoxicity in HeLa cells, dose response, cytotoxicity control, cell-based, 24 h, dry powder, set 2 (AID 651774); format: functional
Beta-lactamase [25] = target: T2, Beta-lactamase; experiment: Epi-absorbance-based counterscreen for selective VIM-2 inhibitors: dose response biochemical high throughput screening assay to identify inhibitors of TEM-1 serine-beta-lactamase.
Beta-lactamase [26] = target: T1, Beta-lactamase; experiment: IMP-1 metallo-beta-lactamase inhibitors, dose response, selectivity assay for VIM-2 inhibitor project, biochemical, epi-absorbance (AID 1920)
Beta Lactamase [27] = target: T7, Beta Lactamase (Pseudomonas aeruginosa, UniProt Q932Y6); experiment: VIM-2 metallo-beta-lactamase inhibitor potency, dose response, biochemical, epi-absorbance readout, selective inhibitors (AID 1919)
T7 sequence (Q932Y6 whole entry): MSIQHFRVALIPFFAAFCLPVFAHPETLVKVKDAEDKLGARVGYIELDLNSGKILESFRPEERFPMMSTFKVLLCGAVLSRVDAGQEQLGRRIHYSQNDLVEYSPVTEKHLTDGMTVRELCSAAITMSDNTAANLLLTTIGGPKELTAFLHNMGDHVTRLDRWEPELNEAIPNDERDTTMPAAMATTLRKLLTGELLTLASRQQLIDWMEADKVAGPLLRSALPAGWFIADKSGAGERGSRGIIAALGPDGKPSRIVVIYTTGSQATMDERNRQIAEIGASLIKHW

Beta-lactamase [28] = target: T1, Beta-lactamase; experiment: […] counterscreen for selective VIM-2 inhibitors: dose response biochemical high throughput screening assay to identify inhibitors of IMP-1 metallo-beta-lactamase.
Beta Lactamase [29] = target: T7, Beta Lactamase; experiment: VIM-2 inhibitor FRET-based artefact check, dose response, artefact control for selective VIM-2 inhibitor project, biochemical, FRET readout, CCF2 substrate (AID 1926)
[30] = target: FAD-linked sulfhydryl oxidase ALR (Homo sapiens, UniProt P55789); experiment: inhibitors of human ALR sulfhydryl oxidase, dose response, biochemical, H2O2 detection, luminescence, cherry-pick (AID 493248)
Sequence of FAD-linked sulfhydryl oxidase ALR (P55789 whole entry): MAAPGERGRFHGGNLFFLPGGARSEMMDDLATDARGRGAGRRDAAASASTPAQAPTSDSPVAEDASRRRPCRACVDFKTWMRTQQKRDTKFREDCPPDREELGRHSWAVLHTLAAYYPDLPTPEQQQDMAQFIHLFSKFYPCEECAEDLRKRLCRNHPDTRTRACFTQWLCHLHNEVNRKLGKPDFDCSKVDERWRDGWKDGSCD

T1 sequence (Q79MP6 whole entry): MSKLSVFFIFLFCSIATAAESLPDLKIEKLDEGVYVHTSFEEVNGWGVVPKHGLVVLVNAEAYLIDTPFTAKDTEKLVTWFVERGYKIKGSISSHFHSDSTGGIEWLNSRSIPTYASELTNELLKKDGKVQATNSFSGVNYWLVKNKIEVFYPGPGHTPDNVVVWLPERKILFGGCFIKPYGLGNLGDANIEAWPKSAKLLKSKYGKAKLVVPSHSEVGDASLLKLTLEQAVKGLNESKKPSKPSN
T2 sequence (Q5J463 whole entry, the tested form may be a part): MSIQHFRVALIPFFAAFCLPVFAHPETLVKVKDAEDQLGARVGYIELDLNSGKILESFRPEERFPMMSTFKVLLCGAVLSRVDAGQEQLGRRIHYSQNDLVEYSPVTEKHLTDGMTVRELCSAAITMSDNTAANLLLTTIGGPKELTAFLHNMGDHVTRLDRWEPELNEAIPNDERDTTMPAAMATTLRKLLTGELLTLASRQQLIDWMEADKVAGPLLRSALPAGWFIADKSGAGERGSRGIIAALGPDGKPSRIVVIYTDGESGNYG

For COC(=O)c1sccc1NC(=O)c1ccc(C#N)cc1, the IC50 (Beta-lactamase [1]) was > 59.6 µM (inactive) and the IC50 (Beta-lactamase [2]) was > 59.6 µM (inactive).

In the case of O=C(COC(=O)c1ccc2c(c1)C(=O)N(c1cccc3ncccc13)C2=O)c1ccc(Cl)cc1, the IC50 [3] was 1.97 µM (active).

In the case of O=C1CCC(C(=O)Nc2cccc(C(F)(F)F)c2)N1 (stereo unspecified), the AC50 (HeLa) was > 52 µM (inactive).

With CC1=NN(c2cccc(Cl)c2)C(=O)C1 the AC50 [4] was 75.7 µM (active), the EC50 (Protein RecA) was 54.5 µM (active) and the IC50 [5] was 8.2 µM (active). For the same molecule, the IC50 [6] was 13.4 µM (active).

For Cc1ccc(Cn2ccc(NC(=O)c3cc4nc(-c5ccco5)cc(C(F)(F)F)n4n3)n2)cc1, the AC50 (Cytochrome P450 2C19) was 14.1 µM (inconclusive), the EC50 [7] was 0.22 µM (active) and the EC50 [8] was 0.00643 µM (active). The AC50 (Cytochrome P450 3A4) was 2.82 µM (inconclusive).

With C[C@@H]1CN([C@H](C)CO)C(=O)c2cccc(NC(=O)Nc3ccc(C(F)(F)F)cc3)c2O[C@H]1CN(C)Cc1ccc(Cl)c(Cl)c1 the AC50 [9] was 15.7 µM (active) and the AC50 [10] was 1.28 µM (active).

For N#C[C@H]1[C@H](c2ccc(C#Cc3ccccc3F)cc2)[C@H](CO)N1C(=O)c1cccnc1, the AbsAC35 [11] was 50.14 µM, the AC50 [12] was 1.83 µM (active) and the AC50 [13] was > 100 µM (inactive). For the same molecule, the AC50 [14] was 1.58 µM (active), the AC50 [15] was 1.59 µM (active) and the AC50 [16] was > 39 µM (inactive). For the same molecule, the AC50 [17] was 1.54 µM (active).

For C[C@@H]1CN([C@H](C)CO)C(=O)c2cc(NC(=O)Nc3ccc(F)cc3)ccc2O[C@H]1CN(C)S(=O)(=O)c1ccc(Cl)cc1, the AC50 [18] was 0.113 µM (active) and the AC50 [19] was > 70 µM (inactive).

In the case of CCC(=O)N1CCCC1(C)C(=O)Nc1ccc(C)c(C)c1 (stereo unspecified), the AC50 [20] was 93.7 µM (active).

In the case of COc1ccc(OC)c(-c2nnc3n2N=C(c2ccc(OC)c(OC)c2)CS3)c1, the IC50 [21] was > 80 µM (inactive), the AC50 (Vero) was 23.2 µM (active) and the AC50 (A549) was 4.83 µM (active).

For CC1(C)CC(NC(=O)C(=O)Nc2ccc(Cl)cc2)CC(C)(C)N1, the AC50 [22] was > 70 µM (inactive).

In the case of O=c1c2cc([N+](=O)[O-])ccc2nc(C2CCNCC2)n1-c1ccccc1, the IC50 [23] was 3.88 µM (active).

With CNC(=O)Cc1ccc(-c2ccccc2)cc1 the AC50 [24] was > 70 µM (inactive).

For O=[N+]([O-])c1ccccc1/C=C/C=N/n1c(S)nnc1-c1ccccc1F, the IC50 (Beta-lactamase [25]) was > 59.6 µM (inactive), the IC50 (Beta-lactamase [26]) was > 59.6 µM (inactive) and the IC50 (Beta Lactamase [27]) was > 59.6 µM (inactive). The IC50 (Beta-lactamase [28]) was > 59.6 µM (inactive), the IC50 (Beta Lactamase [29]) was > 6.63 µM (active) and the AC50 [30] was 1.89 µM (active).
